Calls of active or inactive are those of the source.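 The calls were made as follows: active = compound whose fitted growth curve, scaled so untreated is 0 and control 100, reaches 40 within the tested doses; inconclusive = flat curve between 30 and 70 percent, or unreliable fit; inactive = the rest, including drops in growth.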
System: S. cerevisiae GAL-BEM3 growth rescue, OD600, 48 h
Assay: yeast growth restoration under BEM3 overexpression – S. cerevisiae, dry powder, plate reader, dose response (AID 602280)

Row | Structure (SMILES) | AC40
1 | CC(C)c1ccc(C2NC(=O)c3ccccc3O2)cc1 (centres undefined) | 2.3 µM
2 | Cc1ccccc1CSc1nsc(N)n1 | > 26 µM (inactive)
3 | O=c1c2ccccc2[nH]c(=S)n1CCC1=CCCCC1 | 22 µM
4 | Fc1cc(NCc2ccccc2)nc(NCc2ccccc2)n1 | 8.75 µM
